Laboratory results as given in PubChem BioAssay (NCI).
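Assay format: 96-well plates, 48-hour exposure. The concentration for full growth arrest is given as TGI.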

Key:
Test in all cases: NCI tumour cell line growth inhibition, 48 h
[1] = test system: NCI-H522 lung
[2] = test system: SK-MEL-28 melanoma
[3] = test system: HCC-2998 colon
[4] = test system: OVCAR-4 ovarian
[5] = test system: OVCAR-3 ovarian
[6] = test system: NCI/ADR-RES ovarian
[7] = test system: NCI-H460 lung
[8] = test system: M14 melanoma
[9] = test system: RXF 393 renal
[10] = test system: IGROV1 ovarian
[11] = test system: BT-549 breast
[12] = test system: ACHN renal
[13] = test system: SF-268 CNS
[14] = test system: HOP-92 NSCLC
[15] = test system: UACC-257 melanoma
[16] = test system: HOP-62 NSCLC
[17] = test system: A549 NSCLC
[18] = test system: OVCAR-8 ovarian
[19] = test system: HT29 colon
[20] = test system: DU-145 prostate
[21] = test system: MDA-MB-435
[22] = test system: MCF7 breast
[23] = test system: COLO 205 colon
[24] = test system: HCT-116 colon
[25] = test system: SR leukemia
[26] = test system: PC-3 prostate
[27] = test system: TK-10 renal
[28] = test system: HCT-15 colon
[29] = test system: MDA-MB-231 breast
[30] = test system: HS 578T breast
[31] = test system: RPMI-8226 leukemia
[32] = test system: UACC-62 melanoma
[33] = test system: U251 CNS
[34] = test system: A498 renal
[35] = test system: SK-OV-3 ovarian
[36] = test system: OVCAR-5 ovarian
[37] = test system: SK-MEL-5 melanoma
[38] = test system: 786-0 renal
[39] = test system: SF-539 CNS
[40] = test system: MDA-N
[41] = test system: CAKI-1 renal
[42] = test system: EKVX NSCLC
[43] = test system: NCI-H23 lung
[44] = test system: KM12 colon
[45] = test system: HL-60(TB) leukemia
[46] = test system: LOX IMVI melanoma
[47] = test system: SF-295 CNS
[48] = test system: SW-620 colon
[49] = test system: T-47D breast
[50] = test system: SNB-19 CNS
[51] = test system: MOLT-4 leukemia
[52] = test system: SK-MEL-2 melanoma
[53] = test system: SN12C renal
[54] = test system: SNB-75 CNS
[55] = test system: UO-31 renal
[56] = test system: K-562 leukemia
[57] = test system: NCI-H226 lung
[58] = test system: CCRF-CEM leukemia

SMILES: O=[N+]([O-])C1=Cc2c(O)ccc(O)c2C2OC=CC12 (stereo not drawn)
- TGI [1]: 18.1 µM
- TGI [2]: > 74.5 µM
- TGI [3]: > 57.8 µM
- TGI [4]: 30.2 µM
- TGI [5]: 21.3 µM
- TGI [6]: 55.9 µM
- TGI [7]: 38.2 µM
- TGI [8]: 34.5 µM
- TGI [9]: 29.4 µM
- TGI [10]: 45.4 µM
- TGI [11]: 27.9 µM
- TGI [12]: 29.1 µM
- TGI [13]: 35.5 µM
- TGI [14]: 58.8 µM
- TGI [15]: 29.9 µM
- TGI [16]: 35.2 µM
- TGI [17]: 43.4 µM
- TGI [18]: > 56.2 µM
- TGI [19]: 43.8 µM
- TGI [20]: > 54.6 µM
- TGI [21]: 6.1 µM
- TGI [22]: 30.9 µM
- TGI [23]: > 63.8 µM
- TGI [24]: 32.1 µM
- TGI [25]: > 74.5 µM
- TGI [26]: 31 µM
- TGI [27]: 30.3 µM
- TGI [28]: 37 µM
- TGI [29]: 40.1 µM
- TGI [30]: 61.6 µM
- TGI [31]: > 100 µM
- TGI [32]: 15.9 µM
- TGI [33]: 32.6 µM
- TGI [34]: 30.1 µM
- TGI [35]: > 100 µM
- TGI [36]: 51.5 µM
- TGI [37]: 26.2 µM
- TGI [38]: 32.6 µM
- TGI [39]: 47.5 µM
- TGI [40]: 11.4 µM
- TGI [41]: 25.8 µM
- TGI [42]: 36.8 µM
- TGI [43]: 32.4 µM
- TGI [44]: 32.5 µM
- TGI [45]: > 30.4 µM
- TGI [46]: 42.6 µM
- TGI [47]: 32.2 µM
- TGI [48]: > 77.4 µM
- TGI [49]: > 71.9 µM
- TGI [50]: 52.2 µM
- TGI [51]: > 46.8 µM
- TGI [52]: 41 µM
- TGI [53]: 35 µM
- TGI [54]: 49.5 µM
- TGI [55]: 29.7 µM
- TGI [56]: > 100 µM
- TGI [57]: > 73.8 µM
- TGI [58]: > 26.8 µM
